Data as given in a melting point compilation (Tetko et al.; mined from patent text by program, amines drawn as free bases though some values may be those of a salt).

Row | melting point | Structure (SMILES)
1 | 200 to 202 °C | COCCc1sc2ncnc(N)c2c1-c1ccc(NC(=O)c2ccccc2)cc1
2 | 142 °C | CCN(CC)CCOc1ccc(Nc2ncc3c(n2)N(C)C(=O)N(c2c(Cl)cc(Cl)cc2Cl)C3)cc1
3 | 38.5 to 40.5 °C | CC(C)(C)c1ccccc1C(=O)O
4 | 112 to 113 °C | CC(C)(C)OC(=O)NCCCCC1C(=O)OC(C)(C)OC1=O
5 | 235 to 237 °C | Cc1nc(-n2ccc(-c3ccccc3)cc2=O)sc1C(=O)NCc1ccccc1
6 | 208 to 210 °C | COc1ccc(NC(=N)c2ccccc2)cc1NC(=O)/C=C/c1ccccc1C(F)(F)F
7 | 256 to 259 °C | Cc1cccc(Nc2c([N+](=O)[O-])cc(C(=O)O)cc2S(N)(=O)=O)c1
8 | 117 to 120 °C | CCCc1c(OCc2ccc(C(=O)NC(C)CCCc3cccnc3)cc2)ccc(C(C)=O)c1O (stereo unspecified)
9 | 194 to 195 °C | Cc1sc(NS(=O)(=O)c2cccc(Cl)c2C)nc1CC(=O)N1CCOCC1
10 | 142 to 145 °C | COc1cccc(NS(=O)(=O)c2ccc(N)cc2)c1
11 | 130 to 131 °C | CC(=O)O[C@H]1CC[C@H](c2ccc(C#N)cc2)CC1
12 | 198 °C | CSc1nc(O)cc(=O)n1C
13 | > 250 °C | Nc1ccc(NC(=O)C=C2CC(C(=O)O)Nc3cc(Cl)cc(Cl)c32)cc1 (racemic)
14 | 229 to 230 °C | CN1CCN(c2ccc(Br)c3c2C[C@H](NC(=O)c2ccc(C(F)(F)F)cc2)CC3)CC1
15 | 64 to 70 °C | COC(=O)c1cc(CBr)cc(CBr)c1
16 | 210 to 211 °C | COc1ccc(OC)c(Cc2ccc3[nH]c(=S)[nH]c3c2)c1
17 | 156 to 157 °C | CCC(OC)(c1cccc(OCc2ccc3c(-c4ccoc4)cc(C#N)cc3c2)c1)c1nccs1 (stereo unspecified)

The remaining lines, values behind:

Row | Structure (SMILES) | melting point
18 | O=C1CCC(c2ccccc2)(c2ccccc2)C2CN(C(Cc3ccccc3)=NC(c3ccccc3)c3ccccc3)CC12 (stereo unspecified) | 172 °C
19 | Clc1ccc(CCOc2ncnc3ncccc23)cc1 | 126 to 128 °C
20 | O=[N+]([O-])c1cnc(Sc2nnc(O)n2-c2ccccc2)s1 | 188 to 190 °C
21 | C=CCN1CC(=O)N(c2cc(C(=O)NCCCOc3ccc(C(C)(C)CC)cc3C(C)(C)CC)c(O)c3ccccc23)C1=S | 204 to 205 °C
22 | CC1(C)Oc2cc3nonc3cc2C(N2CCC(O)C2=O)C1O (stereo unspecified) | 195 to 196 °C
23 | CC(C)(C)C(=O)CN1C(=O)C(NC(=O)Nc2cccc3ccccc23)CN(C2CCCCC2)c2ccccc21 (stereo unspecified) | 200 to 203 °C
24 | COc1ccc(-c2ccc(-c3ccc(OC)cc3)c(-c3ccc(OCc4ccccc4)cc3)n2)cc1 | 99 to 102 °C
25 | NC(=S)c1c(Cl)c(-c2cccnc2)n2c1CN(C(=O)Nc1ccc(F)cc1)CC2 | 214 to 216 °C
26 | CC(C)(C)OC(=O)Oc1ccc(C(C(=O)OC(c2ccccc2)c2ccccc2)N2CC(NC(=O)OCc3ccccc3)C2=O)cc1 (stereo unspecified) | 153 to 154 °C
27 | O=[N+]([O-])c1cccc2c1nnn2C1CCCC(Cl)C1Cl (stereo unspecified) | 145 to 148 °C
28 | Cn1cc(Oc2cccc(Cl)c2Cl)c(=O)c(-c2cccc(C(F)(F)F)c2)c1 | 200 to 202 °C
29 | Cc1ccc(S(=O)(=O)N(CCN=[N+]=[N-])CCN=[N+]=[N-])cc1 | 47 to 48 °C
30 | Clc1ccc2c(c1)C(c1ccccc1)=NCCN2C1=NCCO1 | 125 to 126 °C
31 | CN(C)Cc1nnc2n1-c1sc(Cl)cc1C(c1ccccc1[N+](=O)[O-])=NC2 | 234 to 236 °C
32 | C=Cc1c2c(c(C)c(C)c1N1CCN(c3ccc(OC)cc3)CC1)OC(C)(C)C2=O | 147 to 148 °C
33 | COc1ccc2[nH]cc(CC(=O)N3C[C@@H]4[C@H](C3)[C@@](O)(c3ccccc3OC)[C@H](O)CC4(c3ccccc3)c3ccccc3)c2c1 (racemic) | 204 to 206 °C
34 | COc1ccccc1N1CCN(CC2=Cc3ccccc3CC2)CC1 | 84 to 85 °C
35 | Cc1c(C)c2c(c(C)c1NC(=O)CC(C)(C)C)C(O)C(C)(C)O2 (stereo unspecified) | 204 to 206 °C
36 | O=C1Cc2c(Cl)cccc2Sc2ccccc21 | 122 to 125 °C
